US10232035B2, “Conditionally replication deficient herpes virus and use thereof in vaccines” (THE REGENTS OF THE UNIVERSITY OF COLORADO, A BODY CORPORATE, priority 2012, dated 2019)

Test system: SVV mutant 2
Conditions: decreasing amounts of TMP, FIG. 6
From the text: Replication of mutant 2 was monitored by GFP expression (FIG. 5). […] GFP expression was monitored using an inverted microscope.

SMILES: COc1cc(Cc2cnc(N)nc2N)cc(OC)c1OC [TMP, trimethoprim]
- lowest amount of TMP that can be used with SVV mutant 2: 0.05 µM
